Where two headings read alike, the source gives them in different places.
Assays:
Ixodes ricinus = test: In vitro Warm Plate Assay for ticks; format: in vivo; details: for pest or weed control at 0.2 %: 0.2% (Table 10); for concentration at which the level of 85% of ticks affected is reached: Tables 10 and 12
Protocol: Repellent efficacy of the different compounds was assessed against the sheep tick, Ixodes ricinus. I. ricinus is one of the recommended model organisms mentioned by the Guidance on the European Biological Products Regulation [Vol II, Efficacy-Assessment & Evaluation (Parts B+C), v. 3.0, April 2018]. Observations of repellent efficacy were made on last stage nymphs.
The repellent efficacy was assessed using the protocol of the in-vitro Warm Plate Assay as defined in Kröber T, Bourquin M, Guerin P M. A standardized in vivo and in vitro test method for evaluating tick repellents. Pesticide Biochemistry and Physiology. 2013; 107 (2): 160-168.].
The mean±SD number of ticks Ixodes ricinus walking down (affected), falling (affected) or walking-up (non affected) from the warm plate treated with ethanol, N,N-diethyl-3-methylbenzamide, (2,5-dimethyl-2,3-dihydro-1H-inden-2yl)methanol (Ingredient 2) or (2,4,6-trimethyl-2,3-dihydro-1H-inden-2-yl)methanol (Ingredient 1) diluted in ethanol at 0.4 mg/ml and 10 mg/mL was assessed on n groups of 12 ticks (n=2-5).
In this in-vitro assay, the percentage of ticks Ixodes ricinus affected by the stimulus loaded on the warm plate was measured in order to assess the repellency effect. Twelve ticks were assessed per concentrations that goes from 0.0016% up to 1% in ethanol.
Using the same in-vitro setup, the effect on ticks behavior (n≥12) of different stimuli diluted in ethanol at 20% (w/w) was assessed overtime.

Aedes aegypti = test: In vitro Warm Body assay, mosquitoes landing on treated warm body; format: in vivo; details: for repellent effect with increasing amount of stimuli (in words): 0.0016%, 0.04% and 1% in ethanol (FIG. 10)
Protocol: (§1) The arthropod controlling effect according to the present invention is determined on mosquitoes using an adapted Warm Body assay as defined in Kröber T, Kessler S, Frei J, Bourquin M, Guerin P M. An in vitro assay for testing mosquito controlling compounds employing a warm body and carbon dioxide as a behavioral activator. J Am Mosq Control Assoc. 2010; 26:381-386.
(§2) The controlling effect according to the present invention is determined by testing the Warm Body assay against the yellow fever mosquito, Aedes aegypti Rockefeller strain. […] Observations of controlling efficacy were made on host-seeking females of uniform age, 5 to 10 days old selected as mentioned in the publication mentioned hereinabove. Tested hungry females had access to 10% sugar solution but were not blood-fed.
(§3) The published protocol has been adapted in not manually counting the landing mosquitoes but automatically using an automatic counting software, the switch from Anopheles gambiae to A. aegypti led to a decrease of mosquitoes' number placed in the tested cage due to the size difference (i.e. 30 mosquitoes instead of 50) and to an increase of lighting as A. aegypti is a diurnal mosquitoes (i.e. 150 lux instead of 4 lux).
as §2, with “A.” for “Aedes”
as §1, with “The” for “The arthropod”, “was assessed” for “is determined on mosquitoes”
as §3, with “Aedes” for “A.”
In this in-vitro assay the number of A. aegypti landing on a warm body treated with the tested stimuli was measured in order to assess the repellency effect. Three replicates were carried on the three different doses: 0.0016%, 0.04% and 1% in ethanol, using 25 A. aegypti 10-12 days old females per cage.
In this in-vitro assay, the number of Aedes aegypti landing on a warm body treated with the tested stimuli was measured in order to assess the repellency effect. Three replicates were carried on the three different doses: 0.0016%, 0.04% and 1% in ethanol.
In this in-vitro assay, the number of Aedes aegypti landing on a warm body treated with the tested stimuli was measured in order to assess the repellency effect. One replicate was carried at different doses ranging from 0.0016% up to 1% in ethanol.

[1] = Ixodes ricinus, 0.04% (Table 10), read-out: percentage of ticks affected on the Warm Plate
[2] = Ixodes ricinus, read-out: percentage of ticks affected on the Warm Plate
[3] = Ixodes ricinus, 1% (Table 10), read-out: percentage of ticks affected on the Warm Plate

| Molecule | pest or weed control at 0.04 % (Ixodes ricinus; [1]) [%] | pest or weed control at 0.2 % (Ixodes ricinus; [2]) [%] | pest or weed control at 1 % (Ixodes ricinus; [3]) [%] | number of mosquitoes landed on the Warm Body (Aedes aegypti; 0.0016% in ethanol (Table 6)) | number of mosquitoes landed on the Warm Body (Aedes aegypti; 0.04% in ethanol (Table 6)) | number of mosquitoes landed on the Warm Body (Aedes aegypti; 1% in ethanol (Table 6)) | further results |
| --- | --- | --- | --- | --- | --- | --- | --- |
| CC(C)c1ccc2c(c1)CC(C)(CO)C2 (racemic) [5-isopropyl-2-methyl-2-indanmethanol] | 71 | 87 | 92 |  |  |  | pest or weed control at 0.00032 % (Ixodes ricinus; Ixodes ricinus, 0.00032% (Table 10), read-out: percentage of ticks affected on the Warm Plate): 0%; pest or weed control at 0.0016 % (Ixodes ricinus; Ixodes ricinus, 0.0016% (Table 10), read-out: percentage of ticks affected on the Warm Plate): 21%; pest or weed control at 0.008 % (Ixodes ricinus; Ixodes ricinus, 0.008% (Table 10), read-out: percentage of ticks affected on the Warm Plate): 0%; concentration at which the level of 85% of ticks affected is reached (Ixodes ricinus): 0.2%; pest or weed control at 0.0016 % (Aedes aegypti; Aedes aegypti, read-out: decrease of landings): 4 to 29% |
| Cc1ccc2c(c1)[C@H]1OCOC[C@H]1C2 (racemic) [(4aRS,9bSR)-8-methyl-4,4a,5,9b-tetrahydroindeno[1,2-d][1,3]dioxin] | 8 | 33 | 85 | 103 | 8 | 8 |  |
| CC(=O)C1(C)Cc2ccc(C)c(C)c2C1 (racemic) [(+−)-1-(2,4,5-trimethyl-2,3-dihydro-1H-inden-2-yl)ethanone] | 0 | 38 | 92 | 31 | 5 | 18 |  |
| CC(=O)C1(C)Cc2ccc(C)cc2C1 (racemic) [(+−)-1-(2,5-dimethyl-2,3-dihydro-1H-inden-2-yl)ethanone] | 0 | 42 | 100 | 119 | 15 | 6 |  |
| CC1(CO)Cc2ccc(C(C)(C)C)cc2C1 (racemic) [(+−)-5-tert-butyl-2-methyl-2-indanmethanol] |  |  |  |  |  |  | pest or weed control at 0.0016 % (Ixodes ricinus; Ixodes ricinus, 0.0016% (Table 11), read-out: percentage of ticks affected on the Warm Plate): 0%; pest or weed control at 0.04 % (Ixodes ricinus; Ixodes ricinus, 0.04% (Table 11), read-out: percentage of ticks affected on the Warm Plate): 8%; pest or weed control at 1 % (Ixodes ricinus; Ixodes ricinus, 1% (Table 11), read-out: percentage of ticks affected on the Warm Plate): 92%; repellent effect with increasing amount of stimuli (in words) (Aedes aegypti): low decrease of landing |
| Cc1ccc2c(c1)CCC(C)(CO)C2 (racemic) [(+−)-(2,6-dimethyl-1,2,3,4-tetrahydro-2-naphthalenyl)methanol] | 8 | 71 | 100 | 57 | 65 | 3 |  |
| Cc1ccc2c(c1)CC(CO)C2 (racemic) [(+−)-(5-methyl-2,3-dihydro-1H-inden-2-yl)methanol] | 0 | 100 | 100 | 65 | 7 | 5 | concentration at which the level of 85% of ticks affected is reached (Ixodes ricinus): 0.2% |
| CC1OC(C)C2Cc3ccccc3C2O1 (stereo not drawn) [(+)-2,4-dimethyl-4,4a,5,9b-tetrahydroindeno[1,2-d][1,3]dioxine + (−)-2,4-dimethyl-4,4a,5,9b-tetrahydroindeno[1,2-d][1,3]dioxine] |  |  |  | 58 | 37 | 3 |  |
| (1RS,2RS)-2-((2-methoxypropan-2-yloxy)methyl)-2,6-dimethyl-2,3-dihydro-1H-inden-1-ol+(1RS,2SR)-2-((2-methoxypropan-2-yloxy)methyl)-2,6-dimethyl-2,3-dihydro-1H-inden-1-ol |  |  |  |  |  |  | repellent effect with increasing amount of stimuli (in words) (Aedes aegypti): significant lower repellent effect than DEET or IR3535 |
| (1RS,2RS)-2-(hydroxymethyl)-2,6-dimethyl-2,3-dihydro-1H-inden-1-ol+(1RS,2SR)-2-(hydroxymethyl)-2,6-dimethyl-2,3-dihydro-1H-inden-1-ol |  |  |  |  |  |  | repellent effect with increasing amount of stimuli (in words) (Aedes aegypti): significant lower repellent effect than DEET or IR3535 |
| (2RS,4aRS,9bRS)-2,4a,7-trimethyl-4,4a,5,9b-tetrahydroindeno[1,2-d][1,3]dioxine + (2RS,4aSR,9bSR)-2,4a,7-trimethyl-4,4a,5,9b-tetrahydroindeno[1,2-d][1,3]dioxine |  |  |  | 30 | 0 | 0 | number of mosquitoes landed on the Warm Body (Aedes aegypti; 0.04% in ethanol (Table 6), listed as blend of (2RS,4aRS,9bRS)-2,4a,7-trimethyl-4,4a,5,9b-tetrahydroindeno[1,2-d][1,3]): no mosquito landed at all; number of mosquitoes landed on the Warm Body (Aedes aegypti; 1% in ethanol (Table 6), listed as blend of (2RS,4aRS,9bRS)-2,4a,7-trimethyl-4,4a,5,9b-tetrahydroindeno[1,2-d][1,3]): zero |
| (2RS,4aRS,9bSR)-2-ethyl-8-methyl-4,4a,5,9b-tetrahydroindeno[1,2-d][1,3]dioxin + (2RS,4aSR,9bRS)-2-ethyl-8-methyl-4,4a,5,9b-tetrahydroindeno[1,2-d][1,3]dioxin |  |  |  | 45 | 24 | 10 |  |
| (2RS,4aRS,9bSR)-2-methyl-4,4a,5,9b-tetrahydroindeno[1,2-d][1,3]dioxin + (2RS,4aSR,9bRS)-2-methyl-4,4a,5,9b-tetrahydroindeno[1,2-d][1,3]dioxin |  |  |  | 28 | 2 | 2 |  |
| (2RS,4aSR,9bRS)-2,8-dimethyl-4,4a,5,9b-tetrahydroindeno[1,2-d][1,3]dioxine + 2RS,4aRS,9bSR)-2,8-dimethyl-4,4a,5,9b-tetrahydroindeno[1,2-d][1,3]dioxine |  |  |  | 38 | 14 | 4 |  |
| (2RS,4aSR,9bRS)-2-ethyl-4,4a,5,9b-tetrahydroindeno[1,2-d][1,3]dioxine + (2RS,4aRS,9bSR)-2-ethyl-4,4a,5,9b-tetrahydroindeno[1,2-d][1,3]dioxine |  |  |  | 43 | 6 | 5 |  |

Source: patent publication US20260068882A1, “ARTHROPOD CONTROLLING COMPOSITION” (Firmenich SA, priority 2019, published 2026)
